Where only a bound is given, the exact number is not on record here.

The target of the first assay is T1, IRAK4 (Homo sapiens, UniProt Q9NWZ3).
T1 construct: endogenous in cells; host or cells: OCI-Ly10
T1 sequence (Q9NWZ3 1-460): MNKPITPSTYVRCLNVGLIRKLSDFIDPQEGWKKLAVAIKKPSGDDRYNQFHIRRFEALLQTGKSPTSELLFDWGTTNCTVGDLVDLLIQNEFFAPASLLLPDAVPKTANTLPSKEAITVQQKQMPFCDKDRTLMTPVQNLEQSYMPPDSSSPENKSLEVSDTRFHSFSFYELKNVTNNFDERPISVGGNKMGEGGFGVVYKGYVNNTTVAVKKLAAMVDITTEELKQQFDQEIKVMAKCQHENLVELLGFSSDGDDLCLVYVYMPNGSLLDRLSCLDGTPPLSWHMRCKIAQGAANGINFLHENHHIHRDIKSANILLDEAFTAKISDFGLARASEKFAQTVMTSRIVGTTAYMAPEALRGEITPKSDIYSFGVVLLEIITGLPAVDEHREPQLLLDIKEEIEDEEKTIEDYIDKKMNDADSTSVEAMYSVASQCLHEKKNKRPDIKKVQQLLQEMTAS
In words: OCI-LY10 IRAK MSD assay DC50 (IRAK4 degradation). Format: cell-based. The conditions noted are these: OCI-Ly10 cells, incubated for 4 hr, concentration of compound required to degrade 50% of protein. The protocol:
A MSD assay is run to determine the concentration of compound required to degrade 50% of protein (DC50).
• Compounds were reconstituted to 10 mM in stock solutions. The stock solutions were diluted to 5 mM and 45 μL of each dilution was transferred to a 384 pp-plate. A 3 fold, 8-point serial dilution was performed by transferring 15 μL of compound into 30 μL DMSO using Janus. • 20 nL of each compound were added into each well of a 96-well plate (Corning3799). • OCI-Ly10 cells were seeded into the 96-well plate at 3.0*10e^5 cells/100 μL/well. • The cell plate was shaken at 720 rpm for 5 min and incubated for 4 hr. • 100 μL of cells were transferred into the 96-PCR plate and spun down at high speed for 5 mins. • The supernatant was discarded and 100 μL of RIPA lysis buffer with proteinase inhibitors was added per well. The plate was then sealed and shaken at 600 rpm and 4° C. for about 20 min. • The plate was then spun down at high speed (about 3200 g) for 30 min and then frozen in a −80° C. fridge. • A bare MSD plate (L15XA-3) was coated with 2 μg/mL of capture antibody (mouse Anti-IRAK4 antibody [2H9], ab119942) in PBS to 40 μL/well and incubated overnight at 4° C.
• The MSD coated plate was washed 3× (150 μL/well) with 1×TBST (CST #9997S). • The MSD plate was then blocked with 150 μL of blocking buffer [3% Blocker A (MSD, R93BA-4) in TBST]/well and shaken for 1 hr at RT and 600 rpm. • The MSD plate was washed 3× (150 μL/well) with 1×TBST. The sample RIPA lysates were then added to the MSD plate (50 μL/well) and shaken for 1 hr at RT and 600 rpm. • The MSD plate was washed 3× (150 μL/well) with 1×TBST and the primary detection antibody (Rabbit Anti-IRAK4 antibody [Y279], ab32511) was added to a final concentration of 1 μg/ml with 25 μL/well. The plate was then shaken for 1 hr at RT and 600 rpm. • The MSD plate was washed 3× (150 μL/well) with 1×TBST and the secondary detection antibody, SULFO-TAG anti-species antibody (Anti Rabbit Antibody (R32AB-5) MSD, R32AB-1) was added to a volume of 25 μL/well at a final concentration of 1 μg/ml. The plate was then shaken for 1 hr at RT and 600 rpm. • The MSD plate was then washed 3× (150 μL/well) with 1×TBST. • 1×MSD reading buffer was then added (150 μL/well) and the plate […].
(MSD, R92TC-2) • The MSD instrument was then read.
The remaining activity was calculated following the formula below:
• The DC50 was calculated by fitting the Curve using Xlfit (v5.3.1.3), equation 201: […]
The letter codes for IRAK4 DC50 indicate the concentration of compound required to degrade 50% of protein: A (<0.01 μM), B (0.01-0.1 μM), C (>0.1-0.2 μM), D (>0.2 μM).
As usually defined, the DC50 is the concentration giving 50% degradation. Read a low DC50 as a more potent degrader. For `CN(C[C@H]1CC[C@H](n2cc3cc(NC(=O)c4cccc(C(F)(F)F)n4)ncc3n2)CC1)C1CCN(c2ccn3c(N4CCC(=O)NC4=O)cnc3c2)CC1` [I-33], the 50% degradation concentration (DC50) is under 10 nM.

The molecule `CN(C[C@H]1CC[C@H](n2cc3cc(NC(=O)c4cccc(C(F)(F)F)n4)ccc3n2)CC1)C1CCN(c2ccc3c(N4CCC(=O)NC4=O)cncc3c2)CC1` [I-19] registered a DC50 of 10 to 100 nM.

`CC(C)Nc1cc(-c2ccc3cc(C#N)cnn23)ncc1C(=O)N[C@H]1CC[C@H](CN2CCC(c3cccn4c(N5CCC(=O)NC5=O)cnc34)CC2)CC1` [I-73] had a 50% degradation concentration (DC50) of 10 to 100 nM.

As for `N#Cc1cc2nn([C@H]3CC[C@H](CN4CCC(c5ccn6c(N7CCC(=O)NC7=O)cnc6c5)CC4)CC3)cc2cc1NC(=O)c1cccc(C(F)(F)F)n1` [I-66], the half-maximal degradation concentration (DC50) was under 10 nM.

For the molecule `N#Cc1cnc2c(C(=O)Nc3ccc4nn([C@H]5CC[C@H](CN6CCC(c7cccn8c(N9CCC(=O)NC9=O)cnc78)CC6)CC5)cc4c3)cnn2c1` [I-65, 6-Cyano-N-[2-[4-[[4-[3-(2,4-dioxohexahydropyrimidin-1-yl)imidazo[1,2-a]pyridin-8-yl]-1-piperidyl]methyl]cyclohexyl]indazol-5-yl]pyrazolo[1,5-a]pyrimidine-3-carboxamide], the DC50 was in the range of 10 to 100 nM.

For the molecule `N#Cc1cnc2c(C(=O)Nc3ccc4nn([C@H]5CC[C@H](CN6CCC(c7ccn8c(N9CCC(=O)NC9=O)cnc8c7)CC6)CC5)cc4c3)cnn2c1` [I-72], the DC50 was over 200 nM.

Regarding `COc1cc2nn([C@H]3CC[C@H](CN4CCC(c5ccn6c(N7CCC(=O)NC7=O)cnc6c5)CC4)CC3)cc2cc1NC(=O)c1cncc(C#N)c1` [I-84], the DC50 is over 200 nM.

The molecule `O=C1CCN(c2cnc3cc(C4CCN(C[C@H]5CC[C@H](n6cc7cc(NC(=O)c8cccc(C(F)(F)F)n8)ncc7n6)CC5)CC4)ccn23)C(=O)N1` [I-37] yielded a half-maximal degradation concentration (DC50) of over 200 nM.

`O=C1CCN(c2cnc3c(C#CCN4CCN(C[C@H]5CC[C@H](n6cc(NC(=O)c7cnn8ccc(N9C[C@H]%10C[C@@H]9CO%10)nc78)c(C(F)F)n6)CC5)CC4)cccn23)C(=O)N1` [I-60]: the DC50 was under 10 nM.

For `COc1cc2nc([C@H]3CC[C@H](CN4CCC(c5cc(OC)c6ncc(N7CCC(=O)NC7=O)n6c5)CC4)CC3)sc2cc1NC(=O)c1cccc(C(F)(F)F)n1` [I-58], the 50% degradation concentration (DC50) was over 200 nM.

As for `O=C1CCN(c2cnc3cc(C#CCO[C@@H]4CCN(C[C@H]5CC[C@H](n6cc(NC(=O)c7cnn8ccc(N9C[C@H]%10C[C@@H]9CO%10)nc78)c(C(F)F)n6)CC5)C[C@@H]4F)ccn23)C(=O)N1` [I-70], the DC50 is under 10 nM.

`O=C1CCN(c2cncc3c(C4CCN(C[C@H]5CC[C@H](n6cc7cc(NC(=O)c8cccc(C(F)(F)F)n8)ccc7n6)CC5)CC4)cccc23)C(=O)N1` [I-10] had a DC50 of 10 to 100 nM.

On to `COc1cc2nc([C@H]3CC[C@H](CN4CCN(c5ccn6c(N7CCC(=O)NC7=O)cnc6c5C)CC4)CC3)sc2cc1NC(=O)c1cccc(C(F)(F)F)n1` [I-50], for which the DC50 lay in the range of 10 to 100 nM.

As for `C[C@@H]1CN(C[C@H]2CC[C@H](n3cc(NC(=O)c4cnn5ccc(N6C[C@H]7C[C@@H]6CO7)nc45)c(C(F)F)n3)CC2)CC[C@H]1OCC#Cc1cccn2c(N3CCC(=O)NC3=O)cnc12` [I-62], the DC50 was under 10 nM.

With `COc1cc2nn([C@H]3CC[C@H](CN(C)C4CCN(c5ccn6c(N7CCC(=O)NC7=O)cnc6c5)CC4)CC3)cc2cc1NC(=O)c1cc(F)cc(C(F)(F)F)c1` [I-86], the 50% degradation concentration (DC50) was 10 to 100 nM.

Consider `C[C@H]1CN(C[C@H]2CC[C@H](n3cc(NC(=O)c4cnn5ccc(N6C[C@H]7C[C@@H]6CO7)nc45)c(C(F)F)n3)CC2)CC[C@@H]1OCC#Cc1cccn2c(N3CCC(=O)NC3=O)cnc12` [I-61], for which the 50% degradation concentration (DC50) was under 10 nM.

Turning to `O=C1CCN(c2cnc3cc(C4CCN(C[C@H]5C[C@H](n6cc7cc(NC(=O)c8cccc(C(F)(F)F)n8)ccc7n6)C5)CC4)ccn23)C(=O)N1` [I-38], the 50% degradation concentration (DC50) is 10 to 100 nM.

Molecule `COc1cc2nc([C@H]3CC[C@H](CN(C)C4CCN(c5ccn6c(N7CCC(=O)NC7=O)cnc6c5)CC4)CC3)sc2cc1NC(=O)c1cccc(C(F)(F)F)n1` [I-80] yielded a DC50 of 10 to 100 nM.

In turn, `CC(C)Nc1cc(-c2ccc3cc(C#N)cnn23)ncc1C(=O)N[C@H]1CC[C@H](CN2CCC(c3ccn4c(N5CCC(=O)NC5=O)cnc4c3)CC2)CC1` [I-74] displayed a DC50 of 10 to 100 nM.

For the molecule `COc1cc2nn([C@H]3CC[C@H](CN(C)C4CCN(c5ccn6c(N7CCC(=O)NC7=O)cnc6c5)CC4)CC3)cc2cc1NC(=O)c1cncc(Cl)c1` [I-87], the 50% degradation concentration (DC50) was 10 to 100 nM.

In the case of `O=C1CCN(c2cnc3cc(C#CCO[C@@H]4CCN(C[C@H]5C[C@H](n6cc(NC(=O)c7cnn8ccc(N9C[C@H]%10C[C@@H]9CO%10)nc78)c(C(F)F)n6)C5)C[C@@H]4F)ccn23)C(=O)N1` [I-42], the DC50 is under 10 nM.

On to `O=C1CCN(c2cnc3c(C4CCN(C[C@H]5C[C@H](n6cc7cc(NC(=O)c8cccc(C(F)(F)F)n8)ccc7n6)C5)CC4)cccn23)C(=O)N1` [I-39, N-[2-[3-[[4-[3-(2,4-dioxohexahydropyrimidin-1-yl)imidazo[1,2-a]pyridin-8-yl]-1-piperidyl]methyl]cyclobutyl]indazol-5-yl]-6-(trifluoromethyl)pyridine-2-carboxamide], for which the DC50 was over 200 nM.

In turn, `O=C1CCN(c2cnc3c(C4CCN(C[C@H]5CC[C@H](n6cc7cc(NC(=O)c8cccc(C(F)(F)F)n8)ccc7n6)CC5)CC4)cccn23)C(=O)N1` [I-28] had a 50% degradation concentration (DC50) of over 200 nM.

As to `COc1cc2nn([C@H]3CC[C@H](CN4CCN(c5ccn6c(N7CCC(=O)NC7=O)cnc6c5)CC4)CC3)cc2cc1NC(=O)c1cccc(C(F)(F)F)n1` [I-68], the DC50 is under 10 nM.

With `COc1cc2nc([C@H]3CC[C@H](CN4CCC(c5cccn6c(N7CCC(=O)NC7=O)cnc56)CC4)CC3)sc2cc1NC(=O)c1cccc(C(F)(F)F)n1` [I-79], the half-maximal degradation concentration (DC50) is under 10 nM.

For another assay, the system named is OCI-LY10 cells. In words: CellTiter-Glo Luminescent Cell Viability Assay. Format: cell-based. The settings on record: Homo sapiens, 96 h, incubated 4 days, read-out: OCI-LY10 CTG IC50. As for the experimental part: Compound-mediated viability effect on OCI-LY10 was quantitatively determined using the CellTiter-Glo® Luminescent Cell Viability Assay kit from Promega (Catalog number G7570) following manufacturer's recommended procedures. Briefly, OCI-LY10 cells were seeded into 384 well plates (Grenier Bio-One, Catalog number 781080) with a density of 10,000 cells per well. Compounds were then added to the assay plate with final top concentration of 10 μM and 1:3 dilution series with total of 9 doses. The final DMSO concentration was normalized to 0.2%. The assay plates were incubated at 37° C. for 4 days under 5% CO2. Then the assay plate was equilibrated at room temperature for 10 minutes. To determine cell viability, 30 μL CellTiter Glo reagent was added to each well and the assay plate was centrifuged at 1000 rpm for 30 second, incubated at room temperature for 10 min, and analyzed by detecting the luminescence using a multimode plate reader (EnVision 2105, PerkinElmer). The data was then analyzed by software Prism 7.0 from GraphPad and the dose response curves were fit using a three-parameter logistic equation to calculate IC50.
The letter codes for OCI-LY10 CTG IC50 include: A (<1 μM), B (1-10 μM), C (>10 μM).
Background: ATP-based viability assays read luminescence as a measure of living cells.
One may read the IC50 as the concentration that inhibits the measured activity by half. For `CN(C[C@H]1CC[C@H](n2cc3cc(NC(=O)c4cccc(C(F)(F)F)n4)c(C(C)(C)O)cc3n2)CC1)C1CCN(c2ccc3c(N4CCC(=O)NC4=O)cncc3c2)CC1` [I-5], the IC50 lay within 1000 to 10000 nM.

Regarding `CC(C)(O)c1cc2nn([C@H]3CC[C@H](CN4CCC(c5ccc6c(N7CCC(=O)NC7=O)cncc6c5)CC4)CC3)cc2cc1NC(=O)c1cccc(C(F)(F)F)n1` [I-6], the IC50 was in the range of 1000 to 10000 nM.

Turning to `COc1cc2nn([C@H]3CC[C@H](CN4CCC(c5ccc6c(N7CCC(=O)NC7=O)cncc6c5)CC4)CC3)cc2cc1NC(=O)c1cccc(C(F)(F)F)n1` [I-17], the IC50 was under 1000 nM.

Source of the values: patent US20250375526A1, “IRAK DEGRADERS AND USES THEREOF” (Kymera Therapeutics, Inc., priority 2020, published 2025).
